How the values were obtained:
[1] = molecular target: T1, Bst DNA polymerase (Geobacillus stearothermophilus, UniProt P52026); assay: PEP; assay type: biochemical, Bacillus stearothermophilus
T1 sequence (P52026 289-876 limits assumed): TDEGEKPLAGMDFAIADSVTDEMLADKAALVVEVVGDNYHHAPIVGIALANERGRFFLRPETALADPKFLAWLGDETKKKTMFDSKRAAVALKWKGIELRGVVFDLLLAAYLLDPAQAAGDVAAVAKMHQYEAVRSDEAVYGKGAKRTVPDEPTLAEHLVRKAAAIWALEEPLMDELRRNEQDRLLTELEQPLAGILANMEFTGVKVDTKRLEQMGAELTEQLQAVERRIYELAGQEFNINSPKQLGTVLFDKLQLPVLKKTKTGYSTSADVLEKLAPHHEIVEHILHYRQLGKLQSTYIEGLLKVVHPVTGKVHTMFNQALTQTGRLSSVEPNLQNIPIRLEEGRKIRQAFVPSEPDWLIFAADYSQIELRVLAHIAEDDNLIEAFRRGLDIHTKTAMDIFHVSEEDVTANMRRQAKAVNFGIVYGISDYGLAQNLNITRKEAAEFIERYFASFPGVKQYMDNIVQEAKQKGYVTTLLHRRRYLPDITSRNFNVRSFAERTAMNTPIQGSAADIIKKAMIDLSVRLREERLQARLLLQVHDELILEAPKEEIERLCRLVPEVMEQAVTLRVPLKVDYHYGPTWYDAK

[2] = molecular target: Klenow(exo−) DNA polymerase (Escherichia coli, UniProt P00582, D355A/E357A); assay: PEP; assay type: biochemical
[3] = molecular target: Taq DNA polymerase (Thermus aquaticus, UniProt P19821); assay: PEP; assay type: biochemical, Thermus aquaticus YT-1
Taq DNA polymerase, sequence (P19821 whole entry): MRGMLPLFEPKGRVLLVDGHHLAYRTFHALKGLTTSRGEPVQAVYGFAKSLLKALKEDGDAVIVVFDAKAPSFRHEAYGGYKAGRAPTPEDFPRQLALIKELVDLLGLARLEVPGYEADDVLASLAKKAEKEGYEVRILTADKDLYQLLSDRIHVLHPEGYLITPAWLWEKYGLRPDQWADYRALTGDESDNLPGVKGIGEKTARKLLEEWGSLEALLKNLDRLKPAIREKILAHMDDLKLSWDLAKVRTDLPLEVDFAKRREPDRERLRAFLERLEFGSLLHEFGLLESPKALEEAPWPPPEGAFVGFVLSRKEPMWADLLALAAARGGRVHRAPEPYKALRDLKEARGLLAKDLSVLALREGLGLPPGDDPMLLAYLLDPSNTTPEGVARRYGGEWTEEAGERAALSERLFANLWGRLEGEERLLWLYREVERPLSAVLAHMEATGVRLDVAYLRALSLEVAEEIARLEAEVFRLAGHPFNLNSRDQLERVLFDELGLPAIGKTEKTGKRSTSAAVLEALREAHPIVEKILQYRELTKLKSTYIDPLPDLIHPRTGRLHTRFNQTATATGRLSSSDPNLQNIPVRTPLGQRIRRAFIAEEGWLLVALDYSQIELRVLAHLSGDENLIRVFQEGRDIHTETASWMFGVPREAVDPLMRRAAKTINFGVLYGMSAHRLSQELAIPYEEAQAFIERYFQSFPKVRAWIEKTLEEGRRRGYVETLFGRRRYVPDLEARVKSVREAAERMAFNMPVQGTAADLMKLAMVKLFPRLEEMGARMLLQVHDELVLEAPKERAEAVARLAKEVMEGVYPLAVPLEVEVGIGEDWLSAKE

[4] = molecular target: AmpliTaqFS DNA polymerase (Thermus aquaticus, UniProt P19821, F667Y/G46D); assay: PEP; assay type: biochemical, Thermus aquaticus YT-1
AmpliTaqFS DNA polymerase, sequence (P19821 whole entry G46D/F667Y): as the sequence (P19821 whole entry) above, with G46D, F667Y counted along it

[5] = molecular target: T2, Vent(exo−) DNA polymerase (Thermococcus litoralis, UniProt P30317, D141A/E143A); assay: PEP; assay type: biochemical
T2 sequence (P30317 with tags, fused parts or gaps D141A/E143A): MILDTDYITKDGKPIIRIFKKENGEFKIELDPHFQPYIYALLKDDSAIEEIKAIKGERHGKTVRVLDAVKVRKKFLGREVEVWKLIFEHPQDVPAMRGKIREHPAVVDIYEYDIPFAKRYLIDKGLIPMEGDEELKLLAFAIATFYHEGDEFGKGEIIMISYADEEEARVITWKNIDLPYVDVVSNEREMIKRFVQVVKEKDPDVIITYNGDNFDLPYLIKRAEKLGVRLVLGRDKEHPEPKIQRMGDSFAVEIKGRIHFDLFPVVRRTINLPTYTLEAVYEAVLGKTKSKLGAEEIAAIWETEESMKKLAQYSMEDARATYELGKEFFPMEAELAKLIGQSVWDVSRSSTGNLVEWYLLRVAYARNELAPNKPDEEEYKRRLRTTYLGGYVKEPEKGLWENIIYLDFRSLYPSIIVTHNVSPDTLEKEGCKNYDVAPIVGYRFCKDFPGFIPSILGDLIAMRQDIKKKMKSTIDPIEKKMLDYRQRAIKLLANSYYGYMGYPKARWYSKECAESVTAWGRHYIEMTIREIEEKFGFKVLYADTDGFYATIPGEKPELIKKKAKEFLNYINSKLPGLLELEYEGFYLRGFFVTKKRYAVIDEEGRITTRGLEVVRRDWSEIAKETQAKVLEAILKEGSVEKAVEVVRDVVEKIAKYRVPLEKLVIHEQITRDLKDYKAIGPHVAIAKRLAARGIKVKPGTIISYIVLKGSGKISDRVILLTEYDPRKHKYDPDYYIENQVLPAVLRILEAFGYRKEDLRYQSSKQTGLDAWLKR

[6] = molecular target: T3, DeepVent(exo−) DNA polymerase (Pyrococcus sp. GB-D, UniProt Q51334, D141A/E143A); assay: PEP; assay type: biochemical, Pyrococcus species GB-D
T3 sequence (Q51334 with tags, fused parts or gaps D141A/E143A): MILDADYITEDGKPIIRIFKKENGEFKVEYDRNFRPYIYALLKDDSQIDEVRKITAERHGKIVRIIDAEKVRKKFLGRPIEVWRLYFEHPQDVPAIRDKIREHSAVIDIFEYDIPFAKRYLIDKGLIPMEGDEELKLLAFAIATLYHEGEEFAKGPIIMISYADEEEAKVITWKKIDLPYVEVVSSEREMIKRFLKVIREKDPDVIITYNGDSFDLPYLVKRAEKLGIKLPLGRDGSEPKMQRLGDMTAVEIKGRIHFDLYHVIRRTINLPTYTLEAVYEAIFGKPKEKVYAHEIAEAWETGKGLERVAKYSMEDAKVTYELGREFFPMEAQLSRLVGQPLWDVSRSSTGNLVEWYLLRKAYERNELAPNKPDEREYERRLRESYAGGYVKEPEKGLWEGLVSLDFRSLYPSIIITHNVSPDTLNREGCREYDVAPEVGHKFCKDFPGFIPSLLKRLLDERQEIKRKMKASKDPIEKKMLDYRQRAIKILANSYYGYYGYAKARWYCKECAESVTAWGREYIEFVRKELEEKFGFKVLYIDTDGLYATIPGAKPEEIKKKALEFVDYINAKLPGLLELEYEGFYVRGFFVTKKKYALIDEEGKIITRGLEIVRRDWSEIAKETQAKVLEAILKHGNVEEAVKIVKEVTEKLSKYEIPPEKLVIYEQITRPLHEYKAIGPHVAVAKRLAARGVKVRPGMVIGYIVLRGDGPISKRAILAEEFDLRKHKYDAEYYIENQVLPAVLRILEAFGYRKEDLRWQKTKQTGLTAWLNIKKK

[7] = molecular target: T1, Bst DNA polymerase; assay: PEP mismatch; assay type: biochemical, Bacillus stearothermophilus
[8] = Klenow(exo−), ratio of IC50 values
[9] = AmpliTaqFS, ratio of IC50 values

O=[N+]([O-])c1ccccc1CNc1ncnc2c1ncn2[C@H]1C[C@H](O)[C@@H](COP(=O)(O)OP(=O)(O)OP(=O)(O)O)O1 [Compound IIIc, N^6-(2-Nitrobenzyl)-2’-deoxyadenosine-5’-triphosphate]
Incorporation bias Cpd IIIc/dATP ([1]; Bst, ratio of IC50 values): 18
Incorporation bias Cpd IIIc/ddATP ([1]; Bst, ratio of IC50 values): 0.057
Incorporation bias Cpd IIIc/dATP [2, 8]: 2.7
Incorporation bias Cpd IIIc/ddATP [2, 8]: 0.15
Incorporation bias Cpd IIIc/dATP ([3]; Taq, ratio of IC50 values): 380
Incorporation bias Cpd IIIc/ddATP ([3]; Taq, ratio of IC50 values): 0.17
Incorporation bias Cpd IIIc/dATP [4, 9]: 170
Incorporation bias Cpd IIIc/ddATP [4, 9]: 270
IC50 [5]: 2.1 ± 0.2 nM
IC50 [6]: 11 ± 0.6 nM
Discrimination ratio, cytosine–adenine mismatch over complement thymidine base ([7]; Bst, C template base (oligoTemplate)): 1100 fold
Nucleotide discrimination, IC50 of mismatched versus matched bases ([7]; Bst, mismatched template bases A, C or G): greater than two orders of magnitude

Nc1ncnc2c1ncn2[C@H]1CC[C@@H](COP(=O)(O)OP(=O)(O)OP(=O)(O)O)O1 [ddATP, 2′,3′-dideoxyadenosine triphosphate, reference compound]
IC50 [1]: 370 ± 30 nM
Incorporation bias ddATP/dATP ([1]; Bst, ratio of IC50 values): 310
IC50 [2]: 29 ± 5 nM
Incorporation bias ddATP/dATP [2, 8]: 18
IC50 [3]: 12600 ± 900 nM
Incorporation bias ddATP/dATP ([3]; Taq, ratio of IC50 values): 2300
IC50 [4]: 3.3 ± 0.1 nM
Incorporation bias ddATP/dATP [4, 9]: 0.62
IC50 [5]: 550 ± 40 nM
IC50 [6]: 3400 ± 400 nM
Mismatch incorporation ([7]; final concentration of 500 μM (data not shown)): did not show mismatch incorporation
